Measured values from patent US20240327359A1, “3-ISOXAZOLIDINONE COMPOUND, PREPARATION METHOD, HERBICIDAL COMPOSITION AND APPLICATION THEREOF” (QINGDAO KINGAGROOT CHEMICAL COMPOUND CO., LTD., priority 2021, published 2024).

Legend:
Assay in all cases: Activity test of the compositions, post-emergence treatment by foliage spray
Format in all cases: in vivo
[1] = test system: Lolium multiflorum; settings: foliage (F)
Description: (§1) The desired active ingredient B was purchased from a reagent company or synthesized by a known method. The technical materials were all dissolved in acetone and diluted with an aqueous solution containing 0.10% emulsifier Tween-80 which were to be used immediately after dilution.
(§2) Weeds were cultivated by a pot culture method. […] Weed seeds with plump and uniform grains were selected, soaked in lukewarm water at 25° C. for 6 hours, and germinated in a 28° C. biochemical incubator (in darkness). The weed seeds that had just germinated were evenly placed on the surface of the soil and then covered with 0.5-1 cm soil according to the sizes of seeds.
(§3) The culture was carried out in a controllable sunlight greenhouse at 20 to 30° C., in natural light, and with relative humidity of 57% to 72%.
(§4) Each treatment was repeated 4 times. Four pots with 20 weed seeds per pot were treated each time.
(§5) The agents were used for only once in total in the experiment. In the stage of 1.5-2 leaves, the weeds were thinned out to maintain 10 weeds per pot. Ten weeds were kept in each treatment, then continued to be cultured until Echinochloa crus-galli var. zelayensis reached the stage of 2-3 leaves, Cirsium setosum reached the stage of 5-6 leaves, Galium aparine reached the stage of 3-4 whorl leaves, Amaranthus retroflexus reached the stage of 3-5 leaves, Echinochloa crusgalli, Lolium multiflorum and Digitaria sanguinalis reached the stage of 3 leaves with one leaf not fully expanding for further treatment.
(§6) The well-cultured test materials were evenly placed on a platform with an area of 0.5 m^2, and solution of agents was sprayed on the stems and leaves thereof by the 3WP-2000-type walking spray tower at a dosage of 450 kg/ha and at a spray pressure of 0.3 MPa. After all the solution was sprayed, the valve was closed. After 30 seconds, the door of the spray tower was opened, and the nutritional bowl was taken out. Then the valve was opened, and the spray tube was cleaned by spraying 50 ml of water. After the treatment, the weeds were routinely cultured in a greenhouse.
(§7) A method for investigating absolute numbers was employed. Whole seedlings of survival weeds were cut off with a blade along the soil surface, and the fresh weight of the weeds was weighed with an analytical balance. For dead weeds, the fresh weight thereof was zero.
(§8) The investigation was performed 21 days after the treatment for only once in total.

[2] = test system: Galium aparine; settings: foliage (F)
Description: as §1, §2, §4, §5, §6, §7, §8

[3] = test system: Amaranthus retroflexus; settings: foliage (F)
Description: as §1, §2, §3, §4, §5, §6, §7, §8

[4] = test system: Digitaria sanguinalis
Description: as §1, §2, §3, §4, §5, §6, §7, §8

[5] = test system: Echinochloa crusgalli; settings: foliage (F)
Description: as §1, §2, §3, §4, §5, §6, §7, §8

[6] = test system: Echinochloa crus-galli var. zelayensis; settings: Echinochloa crusgalli var. zelayensis, foliage (F)
Description: as §1, §2, §3, §4, §5, §6, §7, §8

## C[C@@H](Oc1nc(F)c(Cl)c(N)c1Cl)C(=O)OCC1CCCO1 (stereo partly shown)
[1]; B 8 g a.i./mu
  Control effect (%) of B applied alone (B): 30.7%
[1]; B 16 g a.i./mu
  Control effect (%) of B applied alone (B): 44.1%

## Cc1cc(Cl)ccc1OCC(=O)O [MCPA]
[2]; B 20 g a.i./mu
  Control effect (%) of B applied alone (B): 33.1%
[2]; B 40 g a.i./mu
  Control effect (%) of B applied alone (B): 46.7%

## Cc1nn(C)cc1C(=O)Oc1c(C(=O)c2ccc(C(F)(F)F)cc2S(C)(=O)=O)c(C)nn1C [bipyrazone]
[2]; B 0.75 g a.i./mu
  Control effect (%) of B applied alone (B): 33.6%
[2]; B 1.5 g a.i./mu
  Control effect (%) of B applied alone (B): 46.2%

## CCCCCCCC(=O)Oc1c(Br)cc(C#N)cc1Br [bromoxynil octanoate]
[3]; B 6 g a.i./mu
  Control effect (%) of B applied alone (B): 38.2%
[3]; B 12 g a.i./mu
  Control effect (%) of B applied alone (B): 49.5%

## Cn1[nH]c(C2CC2)c(C(=O)c2ccc(C(F)(F)F)c(N3CCCCC3=O)c2Cl)c1=O [cypyrafluone]
[1]; B 3 g a.i./mu
  Control effect (%) of B applied alone (B): 26.7%
[1]; B 6 g a.i./mu
  Control effect (%) of B applied alone (B): 38.9%

## COc1c(Cl)ccc(Cl)c1C(=O)O [dicamba]
[2]; B 4 g a.i./mu
  Control effect (%) of B applied alone (B): 28.6%
[2]; B 8 g a.i./mu
  Control effect (%) of B applied alone (B): 39.7%

## COc1ncc(F)c2nc(S(=O)(=O)Nc3c(F)cccc3F)nn12 [florasulam]
[2]; B 0.1 g a.i./mu
  Control effect (%) of B applied alone (B): 31.5%
[2]; B 0.2 g a.i./mu
  Control effect (%) of B applied alone (B): 44.1%

## Nc1c(Cl)c(F)nc(OCC(=O)O)c1Cl [fluroxypyr]
[2]; B 4 g a.i./mu
  Control effect (%) of B applied alone (B): 29.4%
[2]; B 8 g a.i./mu
  Control effect (%) of B applied alone (B): 46.1%

## CS(=O)(=O)NC(=O)c1cc(Oc2ccc(C(F)(F)F)cc2Cl)ccc1[N+](=O)[O-] [fomesafen]
[3]; B 4 g a.i./mu
  Control effect (%) of B applied alone (B): 38.1%
[3]; B 8 g a.i./mu
  Control effect (%) of B applied alone (B): 47.5%

## COc1c(Cl)ccc(-c2cc(N)c(Cl)c(C(=O)O)n2)c1F [halauxifen]
[2]; B 0.2 g a.i./mu
  Control effect (%) of B applied alone (B): 26.4%
[2]; B 0.4 g a.i./mu
  Control effect (%) of B applied alone (B): 37.2%

## Cc1ccc2c(c1)[C@H](Nc1nc(N)nc(C(C)F)n1)[C@@H](C)C2 (stereo partly shown) [indaziflam]
[4]; foliage treatment (F), B at 0.8 g a.i./mu, 21 days
  Control effect (%) of B applied alone (B): 36.4%
[4]; foliage treatment (F), B at 1.6 g a.i./mu, 21 days
  Control effect (%) of B applied alone (B): 52.1%

## COC(=O)c1ccc(CNS(C)(=O)=O)cc1S(=O)(=O)NC(=O)Nc1nc(OC)cc(OC)n1 [mesosulfuron-methyl]
[1]; B 0.25 g a.i./mu
  Control effect (%) of B applied alone (B): 31.5%
[1]; B 0.5 g a.i./mu
  Control effect (%) of B applied alone (B): 44.3%

## CS(=O)(=O)c1ccc(C(=O)C2C(=O)CCCC2=O)c([N+](=O)[O-])c1 [mesotrione]
[4]; foliage (F), B 2.5 g a.i./mu
  Control effect (%) of B applied alone (B): 38.6%
[4]; foliage (F), B 5 g a.i./mu
  Control effect (%) of B applied alone (B): 52.1%

## COc1cc(OC)nc(NC(=O)NS(=O)(=O)c2ncccc2C(=O)N(C)C)n1 [nicosulfuron]
[4]; foliage (F), B 1 g a.i./mu
  Control effect (%) of B applied alone (B): 29.7%
[4]; foliage (F), B 2 g a.i./mu
  Control effect (%) of B applied alone (B): 47.6%

## COc1cnc(OC)n2nc(NS(=O)(=O)c3c(OCC(F)F)cccc3C(F)(F)F)nc12 [penoxsulam]
[5]; B 0.5 g a.i./mu
  Control effect (%) of B applied alone (B): 52.7%
[5]; B 1 g a.i./mu
  Control effect (%) of B applied alone (B): 61.7%

## CCC(=O)Nc1ccc(Cl)c(Cl)c1 [propanil]
[6]; B 16 g a.i./mu
  Control effect (%) of B applied alone (B): 16.8%
[6]; B 32 g a.i./mu
  Control effect (%) of B applied alone (B): 31.2%

## CCCN(CCC)C(=O)SCc1ccccc1 [prosulfocarb]
[2]; B 50 g a.i./mu
  Control effect (%) of B applied alone (B): 40.5%
[2]; B 100 g a.i./mu
  Control effect (%) of B applied alone (B): 56.1%

## O=C(O)c1c(Cl)ccc2cc(Cl)cnc12 [quinclorac]
[6]; B 4 g a.i./mu
  Control effect (%) of B applied alone (B): 22.5%
[6]; B 8 g a.i./mu
  Control effect (%) of B applied alone (B): 41.4%

## COC(=O)CCNC(=O)C(C)Sc1cc(-n2c(=O)cc(C(F)(F)F)n(C)c2=O)c(F)cc1Cl (stereo not shown) [tiafenacil]
[5]; B 0.5 g a.i./mu
  Control effect (%) of B applied alone (B): 33.4%
[5]; B 1 g a.i./mu
  Control effect (%) of B applied alone (B): 45.9%

## Cc1cc(C)n(Cc2c(S(C)(=O)=O)ccc(C(=O)c3c(C)nn(C)c3OC(=O)c3cn(C)nc3C)c2Cl)n1 [tripyrasulfone]
[5]; B 4 g a.i./mu
  Control effect (%) of B applied alone (B): 26.7%
[5]; B 8 g a.i./mu
  Control effect (%) of B applied alone (B): 46.1%
